Measurements reported in article PMC4841555, “Optimization of the All-D Peptide D3 for Aβ Oligomer Elimination” (PLoS ONE, 2016).
Non-standard residues stand in square brackets, D forms with d. Residues, ends and D or L forms follow the SMILES beside them.

Legend:
Assay type in all cases: biochemical
Aβ(1–42) [1] = biological target: T1, Aβ(1–42) (Homo sapiens, UniProt P05067); experiment: Thioflavin T (ThT) fibril formation assay; conditions: pH 7.4, 20 μM Aβ(1–42), 20 μM peptide (method: 31 μg/ml), 20 μM ThT, 10 mM sodium phosphate pH 7.4, 37°C, compared after 5 h with Aβ(1–42)-only control; read-out: inhibition of Aβ(1–42) fibril formation (ThT fluorescence)
T1 construct: Aβ(1–42), N-terminally biotinylated Aβ(1–42) and FITC-Aβ(1–42) were purchased from Bachem; purchased Bachem (Heidelberg, Germany)
T1 sequence (P05067 672-713 limits assumed): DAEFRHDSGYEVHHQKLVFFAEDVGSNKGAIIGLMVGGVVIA
Description: 20 μM Aβ(1–42) was mixed with 20 μM Thioflavin T (ThT) and 31 μg/ml DB3 or DB3DB3 in 10 mM sodium phosphate buffer, pH 7.4. The assay was performed using a non-binding 96 well plate (Greiner Bio-One, Frickenhausen, Germany). ThT fluorescence was measured every 15 min at λex = 440 nm and λem = 490 nm in a temperature-controlled plate reader (Polarstar Optima, BMG, Offenburg, Germany) at 37°C with 1 min agitation before every measurement. Each value was background corrected using the ThT fluorescence of a peptide solution without Aβ(1–42). To investigate the influence of DB1 to DB5 on Aβ fibril formation, a Thioflavin T (ThT) assay was performed. In an aqueous environment the benzothiazole dye has a low fluorescence. […] The emission at 490 nm is directly proportional to the quantity of amyloid fibrils. Fibril formation of Aβ can be followed in real time by measuring the ThT fluorescence. Therefore, the inhibitory effects of the D-peptides DB1 to DB5 and D3 were investigated by co-incubating these peptides with Aβ(1–42) and performing the ThT assay. Fluorescence emission data were compared after 5 h incubation, because after this period the Aβ(1–42) control (without added peptide) reached its fluorescence maximum. […] 20 μM Aβ(1–42) was mixed with 20 μM DB1 to DB5 or 10 μM DB3DB3 and the ThT fluorescence was monitored. Aβ(1–42) without peptide addition was taken as the control. The ThT fluorescence of all samples were compared after 5 h, where the control, Aβ(1–42) only, reached its maximum in fluorescence emission. The Mann-Whitney-U-test was used for statistical analysis. * p < 0.05; ** p < 0.01; *** p < 0.001.

Aβ(1–42) [2] = biological target: T1, Aβ(1–42); experiment: Aβ aggregation inhibition ELISA; conditions: 400 nM Aβ(1–42), 500 mM Tris pH 7.4, 23 h, 37°C, aggregate-specific ELISA, logistic fit, three independent experiments; read-out: EC50 of inhibition of Aβ aggregate formation
Description: Freshly dissolved monomeric Aβ(1–42) (400 nM in 500 mM Tris-buffer pH 7.4) was incubated with and without DB peptides in different concentrations (0.01, 0.05, 0.1, 0.5, 1, 5, 10, 50 and 100 μM for DB3 or half of the molar concentrations in case of DB3DB3) in a humidity chamber for 23 h at 37°C. The aggregation was analyzed by an enzyme-linked immunosorbent assay (ELISA). NP27 antibody in bicarbonate/carbonate buffer was used to coat the ELISA plate overnight. Then the plate was washed in PBS-Tween buffer (1x PBS + 0.05% Tween) and blocked for 2 h at room temperature with 5% casein buffer. After washing, Aβ aggregate solutions were added to the plate and incubated for 1 h at room temperature. The plate was washed again and bound Aβ aggregates were detected by biotinylated 6E10/HRP-avidin mediated immunoreaction (BioLegend, San Diego, CA USA) using TMB as detection reagent. […] Mean value and standard error were calculated from three independent experiments. EC50 was calculated by fitting the data to a logistic dose response function.
Fig 5 Inhibition of Aβ fibril formation and Aβ aggregation disassemble by DB3 and DB3DB3. A) Monomeric Aβ(1–42) (400 nM) was mixed with different concentrations of DB3 (0.01, 0.05, 0.1, 0.5, 1, 5, 10, 50, 100 μM) and the aggregation state of Aβ was analyzed using an Aβ aggregate specific ELISA. […] All data were determined in triplicate. […]

Aβ(1–42) oligomers = biological target: T2, Aβ(1–42) oligomers (Homo sapiens, UniProt P05067); experiment: QIAD assay (Aβ oligomer elimination); conditions: 20 μM DB3, 80 μM Aβ(1–42) preincubated 4.5 h, 40 min with peptide, density gradient centrifugation, RP-HPLC, vs Aβ only control, triplicate
T2 construct: Aβ(1–42), N-terminally biotinylated Aβ(1–42) and FITC-Aβ(1–42) were purchased from Bachem; purchased Bachem (Heidelberg, Germany)
T2 sequence (P05067 672-713 limits assumed): as above
Description: The quantitative determination of interference with Aβ(1–42) aggregate size distribution (QIAD) was performed as described before. In brief, 80 μM Aβ(1–42) was incubated in 10 mM sodium phosphate buffer, pH 7.4 for 4.5 h at 22°C with 600 rpm agitation. Aβ(1–42) aggregation was continued for an additional 40 min with or without DB peptide. The obtained partial size distribution was analyzed by applying density gradient centrifugation. 100 μl of the incubated sample was placed on top of a gradient with 5 to 50% iodixanol (Optiprep, Axis-shield, Oslo, Norway) and separated at 259.000 x g for 3 h at 4°C using an ultracentrifuge (Optima MAX-XP, Beckman Coulter, Brea, USA). Fourteen fractions of 140 μl were taken from top to bottom. […] For quantification of the Aβ(1–42) amount in each fraction, reversed-phase high performance liquid chromatography (RP-HPLC) was performed using a Zorbax SB-300 C8 column (Agilent, Böblingen, Germany) connected to an Agilent 1260 Infinity system using 30% (v/v) acetonitrile with 0.1% (v/v) trifluoroacetic acid (TFA) as the mobile phase with a flow of 1 ml/min and a column temperature of 80°C. […] The UV absorption at 214 nm was measured. For quantification of the Aβ(1–42) amount, the area under the peak representing Aβ(1–42) was calculated and the molar concentration was determined using a calibration curve. […]

inhibition at 31 µg/mL (Aβ(1–42) [1]): 80% | EC50 (Aβ(1–42) [2]): 6 µM | reduction of the amount of Aβ oligomers (Aβ(1–42) oligomers): ~ 27%
Compound: CC[C@@H](C)[C@@H](NC(=O)[C@H]1CCCN1C(=O)[C@H](N)CCCNC(=N)N)C(=O)N[C@@H](C(=O)N[C@H](CCCNC(=N)N)C(=O)N[C@H](CC(C)C)C(=O)N[C@H](CCCNC(=N)N)C(=O)N[C@@H](C(=O)N[C@H](Cc1c[nH]cn1)C(=O)N[C@H](CCC(N)=O)C(=O)N[C@H](CC(N)=O)C(=O)N[C@H](CCCNC(=N)N)C(N)=O)[C@H](C)O)[C@H](C)O [DB3] (H-[dR][dP][dI][dT][dR][dL][dR][dT][dH][dQ][dN][dR]-NH2)
